Article PMC7253177, “Gain of channel function and modified gating properties in TRPM3 mutants causing intellectual disability and epilepsy” (eLife, 2020)

Molecular target: T1, TRPM3 V990M mutant (Homo sapiens, UniProt Q9HCF6, V1015M)
T1 construct: expressed in transfected cells; host or cells: HEK293T
T1 sequence (Q9HCF6 1-1325 isoform Q9HCF6-10 V990M): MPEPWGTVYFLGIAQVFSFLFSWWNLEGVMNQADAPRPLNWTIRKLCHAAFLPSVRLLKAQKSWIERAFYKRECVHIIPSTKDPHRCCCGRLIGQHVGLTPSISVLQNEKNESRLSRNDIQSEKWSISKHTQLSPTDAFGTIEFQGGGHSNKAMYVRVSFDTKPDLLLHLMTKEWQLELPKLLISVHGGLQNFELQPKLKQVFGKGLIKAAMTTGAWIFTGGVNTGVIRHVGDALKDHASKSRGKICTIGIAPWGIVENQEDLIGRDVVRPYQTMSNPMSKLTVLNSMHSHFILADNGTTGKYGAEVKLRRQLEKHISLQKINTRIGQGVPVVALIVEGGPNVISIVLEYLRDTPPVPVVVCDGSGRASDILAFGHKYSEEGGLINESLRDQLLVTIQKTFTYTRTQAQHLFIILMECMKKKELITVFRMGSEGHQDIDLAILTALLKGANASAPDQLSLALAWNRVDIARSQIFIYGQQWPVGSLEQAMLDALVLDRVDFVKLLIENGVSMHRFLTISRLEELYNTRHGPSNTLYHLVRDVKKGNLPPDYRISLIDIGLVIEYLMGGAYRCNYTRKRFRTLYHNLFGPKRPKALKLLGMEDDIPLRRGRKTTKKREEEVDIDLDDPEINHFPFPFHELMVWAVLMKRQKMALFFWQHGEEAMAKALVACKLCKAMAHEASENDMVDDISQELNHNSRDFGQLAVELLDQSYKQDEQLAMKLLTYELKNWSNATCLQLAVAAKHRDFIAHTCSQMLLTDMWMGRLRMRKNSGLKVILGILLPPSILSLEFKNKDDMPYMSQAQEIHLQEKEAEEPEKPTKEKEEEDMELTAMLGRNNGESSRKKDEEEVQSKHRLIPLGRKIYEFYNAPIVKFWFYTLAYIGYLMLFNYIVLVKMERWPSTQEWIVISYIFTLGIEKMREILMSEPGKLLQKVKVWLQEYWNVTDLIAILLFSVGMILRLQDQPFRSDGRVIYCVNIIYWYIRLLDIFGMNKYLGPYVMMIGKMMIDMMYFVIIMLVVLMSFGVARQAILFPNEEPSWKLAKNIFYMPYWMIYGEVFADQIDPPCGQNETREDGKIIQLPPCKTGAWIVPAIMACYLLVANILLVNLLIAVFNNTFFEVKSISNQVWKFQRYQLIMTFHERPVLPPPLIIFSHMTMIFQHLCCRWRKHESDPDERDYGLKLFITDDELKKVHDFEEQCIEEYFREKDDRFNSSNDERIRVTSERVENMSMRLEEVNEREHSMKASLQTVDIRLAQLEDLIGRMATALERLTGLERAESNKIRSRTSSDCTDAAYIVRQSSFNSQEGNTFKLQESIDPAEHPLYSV
Experiment: Fura-2-based calcium imaging, HEK293T cells transfected with V990M hTRPM3
Assay type: cell-based
Description: HEK293T cells ([Graham et al., 1977]) were cultured as described previously ([Vriens et al., 2007]) and used up in passage number 14. HEK293T cells were tested for the lack of mycoplasma and transiently transfected with 2 µg of DNA using TransIT transfection reagent (Mirus) 36–48 hr before the measurements. In case of co-cultures a ratio of 1:1 between hTRPM3-YFP WT and mutants-YFP DNA was used.
All mutants were obtained by the standard PCR overlap extension method using hTRPM3 directly linked to YFP from pCAGGS/IRES-GFP vector ([Vriens et al., 2007]). Accuracy of all mutant sequences was verified by sequencing of the entire DNA constructs.
Changes in intracellular calcium concentration were monitored using ratiometric Fura-2-based fluorimetry. Cells were loaded with 2 µM Fura-2-acetoxymethyl ester (Alexis Biochemicals) for 30 min at 37°C. Fluorescence was measured during alternating illumination at 340 and 380 nm using Eclipse Ti (Nikon) fluorescence microscopy system, and absolute calcium concentration was calculated from the ratio of the fluorescence signals at these two wavelengths (R = F340/F380) as [Ca^2+]=Km × (R-Rmin)/(Rmax-R), where Km, Rmin and Rmax were estimated from in vitro calibration experiments with known calcium concentrations. The bath solution contained (in mM) 138 NaCl, 5.4 KCl, 2 CaCl2, 2 MgCl2, 10 glucose, and 10 HEPES, pH 7.4. […]

CCC1(c2ccccc2)C(=O)NCNC1=O [primidone]
Effect on basal [Ca2+]i (primidone 100 µM, isosakuranetin 50 µM, did not fully return to WT level): reduced [Ca^2+]i

pregnenolone sulfate [PS]
PS concentration giving robust calcium responses (as low as): 100 nM
